Test results as given in patent US20200017496A1 (priority 2017, published 2020).
Read-outs that look alike come from different tables or passages of the source.

Legend:
[1] = tested on: Escherichia coli (ECO) isolates; test: MIC of compounds alone and combined with antibacterials, broth microdilution (CLSI); assay type: cell-based; settings: for MIC ATB in combination: AF1 @ 4 μg/mL; for MIC: Escherichia coli
How it was run: (§1)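 Log-phase bacteria at a final 5·10^5 CFU/mL in cation-adjusted Mueller-Hinton broth were incubated 16-20 h at 35° C in ambient air with compound alone or with an antibacterial. MIC was the lowest concentration preventing visible growth; combination MIC of the antibacterial was read at each compound concentration.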

[2] = tested on: Enterobacter aerogenes (EAE) isolates; test: as above; assay type: cell-based; settings: AF1 @ 4 μg/mL
How it was run: as §1

**Q.** Which results are given for `CO/N=C(\C(=O)N[C@@H]1C(=O)N2C(C(=O)O)=C(COC(N)=O)CS[C@H]12)c1ccco1` [FUR, Cefuroxime]?
**A.** MIC ATB in combination ([1]; ECO 4133): 4 µg/mL; MIC ATB in combination ([1]; ECO 5302): 4 µg/mL; MIC ATB in combination ([1]; ECO 131119): 4 µg/mL; MIC ATB in combination ([1]; ECO 180070): 4 µg/mL; MIC ATB in combination ([1]; ECO 190314): 4 µg/mL; MIC ATB in combination ([1]; ECO 190317): 4 µg/mL; MIC ATB in combination ([1]; ECO 190457): 8 µg/mL; MIC ATB in combination ([1]; ECO 190549): 2 µg/mL; MIC ATB in combination ([1]; ECO 200159): 2 µg/mL; MIC ATB in combination ([1]; ECO 200259): 2 µg/mL; MIC ATB in combination ([1]; ECO 200344): 4 µg/mL; MIC ATB in combination ([1]; ECO 260096): 4 µg/mL; MIC ATB in combination ([1]; ECO 260304): 4 µg/mL; MIC ATB in combination ([1]; ECO 260508): 2 µg/mL; MIC ATB in combination ([1]; ECO RGN238): 8 µg/mL; MIC ATB in combination ([1]; ECO UFR15): 2 µg/mL; MIC ATB in combination ([1]; ECO UFR16): 16 µg/mL; MIC ATB in combination ([1]; ECO UFR18): 32 µg/mL; MIC ATB in combination ([1]; ECO UFR19): 16 µg/mL; MIC ATB in combination ([1]; ECO UFR20): 64 µg/mL; MIC ATB in combination ([1]; ECO UFR61O): 8 µg/mL; MIC ATB in combination ([1]; ECO UFR62): 8 µg/mL; MIC ATB in combination ([1]; ECO UFR74): 16 µg/mL; MIC ATB in combination ([1]; ECO UFR86): 32 µg/mL; MIC ATB in combination ([1]; ECO UFR174): 2 µg/mL; MIC ATB in combination ([1]; ECO UFR175): 8 µg/mL; MIC ATB in combination ([1]; ECO UFR176): 4 µg/mL; MIC ATB in combination ([1]; ECO UFR184): 64 µg/mL; MIC ATB in combination ([1]; ECO UFR186): 16 µg/mL; MIC ATB in combination ([1]; ECO UFR187): 8 µg/mL; MIC ATB in combination ([1]; ECO UFR189): 2 µg/mL; MIC ATB in combination ([1]; ECO UFR190): 8 µg/mL; MIC ATB in combination ([1]; ECO UFR191): 8 µg/mL; MIC ATB in combination ([1]; ECO UFR207): 2 µg/mL; MIC ATB in combination ([1]; ECO UFR209): 4 µg/mL; MIC ATB in combination ([1]; ECO UFR210): 2 µg/mL; MIC ATB in combination ([1]; ECO UFR211): 8 µg/mL; MIC ATB in combination ([1]; ECO UFR218): 4 µg/mL; MIC [1]: > 256 µg/mL; MIC ([1]; strain ECO 4133 (TEM-30, OXA-1), ATB alone): 16 µg/mL; MIC ([1]; strain ECO 5302 (TEM-1, OXA-1), ATB alone): 32 µg/mL; MIC ([1]; strain ECO 131119 (TEM-1, OXA-48), ATB alone): 8 µg/mL; MIC ([1]; strain ECO 180070 (TEM-1, CTX-M-15), ATB alone, read-out: MIC): > 256 µg/mL; MIC ([1]; strain ECO 190314 (CTX-M-1), ATB alone, read-out: MIC): > 256 µg/mL; MIC ([1]; strain ECO 190317 (TEM-1, SHV-12, CTX-M-15, OXA-1), ATB alone): > 512 µg/mL; MIC ([1]; strain ECO 190457 (CTX-M-15, OXA-1), ATB alone, read-out: MIC): > 256 µg/mL; MIC ([1]; strain ECO 190549 (CTX-M-1), ATB alone, read-out: MIC): > 256 µg/mL; MIC ([1]; strain ECO 200159 (TEM-1, CTX-M-14), ATB alone, read-out: MIC): > 256 µg/mL; MIC ([1]; strain ECO 200259 (CTX-M-14), ATB alone, read-out: MIC): > 256 µg/mL; MIC ([1]; strain ECO 200344 (CTX-M-1), ATB alone, read-out: MIC): > 256 µg/mL; MIC ([1]; strain ECO 260096 (CTX-M-132), ATB alone, read-out: MIC): > 256 µg/mL; MIC ([1]; strain ECO 260304 (CTX-M-15), ATB alone, read-out: MIC): > 256 µg/mL; MIC ([1]; strain ECO 260508 (TEM-1, CTX-M-15, OXA-1), ATB alone, read-out: MIC): > 256 µg/mL; MIC ([1]; strain ECO RGN238 (OXA-1), ATB alone): 16 µg/mL; MIC ([1]; strain ECO UFR15 (TEM-1, OXA-48), ATB alone): 16 µg/mL; MIC ([1]; strain ECO UFR16 (TEM-1, CTX-M-15, OXA-1, OXA-48), ATB alone, read-out: MIC): > 256 µg/mL; MIC ([1]; strain ECO UFR17 (TEM-1, CTX-M-15, CMY-2, OXA-1, OXA-181), ATB alone, read-out: MIC): > 256 µg/mL; MIC ([1]; strain ECO UFR18 (CTX-M-15, OXA-204), ATB alone, read-out: MIC): > 256 µg/mL; MIC ([1]; strain ECO UFR19 (CTX-M-15, CMY-2, OXA-1, OXA-204), ATB alone, read-out: MIC): > 256 µg/mL; MIC ([1]; strain ECO UFR20 (SHV-1, CTX-M-15, OXA-1, OXA-232), ATB alone, read-out: MIC): > 256 µg/mL; MIC ([1]; strain ECO UFR74 (SHV-1, DHA-1), ATB alone, read-out: MIC): > 256 µg/mL; MIC ([1]; strain ECO UFR86 (ompC-, ompF-), ATB alone, read-out: MIC): 64 µg/mL; MIC ([1]; strain ECO UFR184 (CTX-M-15, CMY-4, OXA-1, OXA-204), ATB alone, read-out: MIC): > 256 µg/mL; MIC ([1]; strain ECO UFR185 (OXA-48), ATB alone, read-out: MIC): > 256 µg/mL; MIC ([1]; strain ECO UFR186 (TEM-1, CTX-M-14, OXA-48), ATB alone, read-out: MIC): > 256 µg/mL; MIC ([1]; strain ECO UFR187 (CTX-M-15, OXA-48), ATB alone, read-out: MIC): > 256 µg/mL; MIC ([1]; strain ECO UFR189 (TEM-1, CTX-M-15, OXA-48), ATB alone, read-out: MIC): > 256 µg/mL; MIC ([1]; strain ECO UFR190 (CTX-M-24, OXA-48), ATB alone, read-out: MIC): > 256 µg/mL; MIC ([1]; strain ECO UFR191 (TEM-1, CTX-M-24, OXA-48), ATB alone, read-out: MIC): > 256 µg/mL; MIC ([1]; strain ECO UFR207 (CTX-M-15), ATB alone, read-out: MIC): > 256 µg/mL; MIC ([1]; strain ECO UFR208 (SHV-12), ATB alone, read-out: MIC): > 256 µg/mL; MIC ([1]; strain ECO UFR209 (TEM-1, CTX-M-15), ATB alone, read-out: MIC): > 256 µg/mL; MIC ([1]; strain ECO UFR210 (SHV-12), ATB alone, read-out: MIC): > 256 µg/mL; MIC ([1]; strain ECO UFR212 (CMY-2), ATB alone, read-out: MIC): > 256 µg/mL; MIC ([1]; strain ECO UFR218 (TEM-1, SHV-1, CTX-M-15), ATB alone, read-out: MIC): > 256 µg/mL; MIC ATB in combination ([2]; EAE 49469): 64 µg/mL; MIC ATB in combination ([2]; EAE 200261): 64 µg/mL; MIC ATB in combination ([2]; EAE UFR199): 8 µg/mL; MIC ATB in combination ([2]; EAE UFR201): 2 µg/mL; MIC ATB in combination ([2]; EAE UFR202): 32 µg/mL
